In the METLIN SMRT retention time set (Domingo-Almenara et al. 2019):

Assay: gradient 5% acetonitrile 3 min, to 50% in 2 min, to 85% in 15 min, held 3 min, 100 µL/min
Conditions: column: Zorbax Extend-C18 2.1 x 50 mm; eluents: water / acetonitrile, 0.1% formic acid
Summary of the method: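 Pure standards were run in mixtures of ~100 molecules by HPLC coupled to a quadrupole time-of-flight mass spectrometer. The column was a Zorbax Extend-C18 (2.1 × 50 mm, 1.8 μm) at 100 μL/min, with water and acetonitrile each containing 0.1% formic acid, in positive and negative ionization mode. Dead and dwell volumes were 40 μL and 900 μL. Retention time was taken from computationally picked adduct peaks, each manually inspected, with data collected over 3 months.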

Row | RP-LC retention time [s] | Structure (SMILES)
1 | 730 | Cc1cc(Cl)ccc1NS(=O)(=O)c1cc(-c2[nH]ncc2C(=O)N(C)C)oc1C
2 | 895 | Cc1cccc(NC(=O)C2CCN(S(=O)(=O)c3cccc4nsnc34)CC2)c1C
3 | 688 | Cc1cc2[nH]c(C(=O)Nc3ccc(F)c(F)c3F)c(CN(C)C)c2s1
4 | 962 | O=C(Cc1ccc(Cl)cc1)Nc1cnc(N2CCCCC2)nc1
5 | 861 | COc1ccc(S(=O)(=O)NCc2ccc3c(c2)CCN3C(=O)C(C)C)cc1
6 | 949 | O=C(c1ccccc1)C(c1ccccc1)C1(O)C(=O)Nc2c(Cl)cc(Cl)cc21 (centres undefined)
7 | 993 | COc1cccc(-c2nn3c(CSc4ccccc4)nnc3s2)c1
8 | 860 | O=C(Nc1ccc(F)cc1)N1CCN(Cc2nc3cc(-c4ccccc4)ccc3o2)CC1
9 | 630 | CC(=O)N1c2ccc(S(=O)(=O)N3CCCC3)cc2CC1C(=O)NCCN1CCCCCC1 (centres undefined)
10 | 1090 | Cc1ccc(NC(=O)C2CCN(S(C)(=O)=O)c3cc(Cl)ccc3O2)cc1C (centres undefined)
11 | 792 | O=C(Cn1nc2c3cc(-c4ccccc4)nn3ccn2c1=O)NCc1ccco1
12 | 694 | Cc1ccc2nc(-c3cccc(Br)c3)c(C)c(C(=O)O)c2c1
13 | 628 | CCc1nc2cc3c(cc2n1CC(=O)NC(C)c1ccc2c(c1)OCCCO2)OCCO3 (centres undefined)
14 | 760 | O=C(c1cccc(F)c1)N1CCN(C(=O)c2nsc3ccccc23)CC1
15 | 756 | CCCN1C(=O)CCc2cc(NC(=O)c3ccn(CC)n3)ccc21
16 | 603 | CCOC(=O)c1noc2ncnc(NCC3CCN(Cc4ccccc4Cl)CC3)c12
17 | 567 | COCCCNC(=O)c1ccc2nc(CCc3ccc(NC(C)=O)cc3)[nH]c2c1
18 | 612 | Cc1c(C(=O)N2CCN(C)CC2)cc(-c2ccccc2)n1C
19 | 720 | CC(C)C(=O)N1CCc2cc(C(=O)N3CCCC3)ccc21
20 | 684 | CCOC(=O)c1[nH]c(C)c(CN(Cc2ccc(C)cc2)C(=O)COC)c1C
21 | 835 | COCCNc1c(-c2cccc(F)c2)nc2sc(C(=O)NC(C)C)c(C)n12
22 | 588 | CS(=O)(=O)NCCc1ccc(CC2CCNCC2)cc1
23 | 960 | O=C(Cn1cccc1-c1nnc(-c2ccccc2)o1)Nc1cccc(F)c1

Row | RP-LC retention time [s] | Structure (SMILES)
24 | 822 | CCOc1ncccc1CNC(=O)c1sccc1C
25 | 770 | Cc1ccc2[nH]cc(CCN3CC(C(=O)NCc4ccc5c(c4)OCO5)CC3=O)c2c1 (centres undefined)
26 | 847 | O=C1[C@H](Cc2ccc(O)cc2)N2C(=O)CCN(C(=O)NCc3ccccc3)[C@H]2CN1Cc1cccc2ccccc12
27 | 622 | O=C(Cn1cnc2cc3c(cc21)OCCO3)Nc1ccc2c(c1)OCCCO2
28 | 1080 | CCN1CCCCc2cc(C(=O)NC(C)(C)C)sc21
29 | 984 | CC(C)CCNC(=O)c1nn(-c2ccc(F)cc2)nc1CO
30 | 930 | CCn1nc(C)n2cc(S(=O)(=O)NCc3ccc(F)c(Cl)c3)cc2c1=O
31 | 576 | O=C1CO[C@@H](C(=O)O)[C@H](c2ccccc2)N1
32 | 1250 | CC(C)Cn1cc(S(=O)(=O)N2CCN(c3cccc(Cl)c3)CC2)c2cccnc21
33 | 638 | CCN1c2cc(C(=O)NC3CCN(Cc4ccccc4)CC3)ccc2C(=O)N2CCCCC21 (centres undefined)
34 | 720 | O=C(Cc1ccc(F)cc1)NC1CCN(c2cc(-c3ccc(F)cc3)[nH]n2)C1 (centres undefined)
35 | 591 | c1ccc(-c2nc(C3CCNC3)no2)cc1 (centres undefined)
36 | 716 | CCCn1c(CCNC(=O)c2cc(C)cc(C)c2)nc2cccnc21
37 | 1040 | COc1ccc2c(n1)Sc1nc3ccccc3nc1N2
38 | 1090 | Cc1nc(-c2cc(S(=O)(=O)Nc3ccc(F)cc3F)c(C)s2)sc1C
39 | 823 | O=C(NCc1cccc(F)c1)c1ccc2c(c1)Sc1ncccc1C(=O)N2C1CC1
40 | 861 | COc1ccc(C(=O)NC2c3ccccc3-c3ccccc32)cc1OC
41 | 1040 | Cc1ccc(N2CC(c3noc(-c4sccc4C)n3)CC2=O)cc1 (centres undefined)
42 | 871 | COc1ccccc1NCC(O)Cn1ccc2ccccc21 (centres undefined)
43 | 690 | CCn1nnc2c(N3CCOCC3)nc(-c3ccc(NC(=O)Nc4ccc(C(=O)N5CCN(C)CC5)cc4)cc3)nc21
44 | 963 | CCn1nnc2ccc(-c3noc(-c4ccc(OC)c(OC)c4)n3)cc21
45 | 996 | CCN(CC)S(=O)(=O)c1ccc(NC(=O)N2CCCC(C(=O)Nc3cccc(Cl)c3)C2)s1 (centres undefined)
46 | 992 | COc1ccccc1-c1coc2cc(OC(=O)c3cccs3)ccc2c1=O

Row | RP-LC retention time [s] | Structure (SMILES)
47 | 1170 | COC(=O)c1ccsc1NC(=O)c1cc(-c2ccccc2)on1
48 | 655 | c1cc(N2CCSCC2)ncc1-c1noc(CN2CCN(C3CCCCC3)CC2)n1
49 | 1350 | Cc1ccc(Cl)cc1NC(=O)C1CCCN(c2nc3ccccc3nc2C(F)(F)F)C1 (centres undefined)
50 | 569 | CCOc1ccc(S(=O)(=O)N2CCC(C(=O)N3CCN(C)CC3)CC2)cc1
51 | 591 | Cn1c(CCNC(=O)c2ccccc2F)nc2cccnc21
52 | 563 | OCCNCCNCc1ccc(-c2ccccc2F)o1
53 | 1260 | COc1ccc(-c2noc(C3(NC(=O)c4ccc(C(F)(F)F)cc4)CCCCC3)n2)cc1
54 | 907 | CSc1ccc(Cc2nnc(NC(=O)c3cccc(C(F)(F)F)c3)o2)cc1
55 | 940 | CCOc1ccc(CNC(=O)C2CCCN(c3ccc(=O)n(-c4ccc(CC)cc4)n3)C2)cc1 (centres undefined)
56 | 953 | CCN1C(=O)COc2cc(-c3noc(C(=O)NCCc4ccccc4)n3)ccc21
57 | 1160 | Cc1ccc(C)c(CNC(=O)c2nnc(-c3ccc(S(=O)(=O)N4CCC(C)CC4)cc3)o2)c1
58 | 985 | CCOc1ccc(-n2ccnc(NC(=O)Nc3ccc(F)cc3)c2=O)cc1
59 | 959 | O=C(Cn1nc2c3cc(-c4ccc(F)cc4)nn3ccn2c1=O)Nc1ccc(F)cc1Cl
60 | 630 | O=C(NC1CC1)C1CC(=O)N(c2ccc3c(c2)CCN3C(=O)C2CC2)C1 (centres undefined)
61 | 666 | Cc1cc(NC(=O)CN2CCc3[nH]c4c(C)ccc(C)c4c(=O)c3C2)ccc1F
62 | 911 | O=C(NCCC1=CCCCC1)C1CCN(C(=O)c2ncn3c2COC(c2ccc(Cl)cc2)C3)CC1 (centres undefined)
63 | 693 | COc1cc(NC(=O)N2CCc3c(c(C(=O)N4CCCC4)nn3C)C2)cc(OC)c1
64 | 660 | C[C@]12C=CC(=O)C=C1[C@@H](F)C[C@H]1[C@@H]3CC[C@](O)(C(=O)CO)[C@@]3(C)C[C@H](O)[C@@]12F
65 | 593 | COc1cc(OC)c(OC)cc1CN(C)CCc1ccccn1
66 | 606 | Cc1cc(NC(=O)c2cnccn2)sn1
67 | 609 | O=C(NCc1cccnc1)C1c2ccccc2C(=O)N1Cc1ccc2c(c1)OCO2 (centres undefined)
68 | 732 | COc1ccc(-c2nnc(CC(=O)NCC3CC3)o2)cc1
69 | 664 | CCn1c(C(=O)NCCN2CCCCCC2)c(N2CCCC2=O)c2cc(F)ccc21

Row | RP-LC retention time [s] | Structure (SMILES)
70 | 584 | CCN1CCN(C(=O)c2cc3n(n2)CC(C)(C(=O)NC2CCCCC2)N(C)C3=O)CC1 (centres undefined)
71 | 924 | COc1cc(/C=C(\OC(C)=O)c2ccc3c(c2)OCO3)cc(OC)c1OC
72 | 1160 | O=S(c1cc(Cl)cc(Cl)c1O)c1cc(Cl)cc(Cl)c1O
73 | 926 | CCc1noc(-c2nc(-c3ccc(OC)c(F)c3)no2)n1
74 | 886 | CCC(=O)N(C1CCOCC1)C1CCN(S(=O)(=O)c2ccc(Cl)cc2)CC1
75 | 940 | Cc1nc(-c2csc(S(=O)(=O)N3CCCC(C(=O)Nc4ccc(C)c(Cl)c4)C3)c2)no1 (centres undefined)
76 | 1230 | O=C(Nc1cccc(F)c1)c1c(O)c2cccnc2n(-c2ccccc2)c1=O
77 | 899 | O=C(NCc1cccs1)C1CCCN(c2nc3ccsc3c(=O)n2Cc2ccc(F)cc2)C1 (centres undefined)
78 | 748 | Cc1ccc(NC(=O)N(C)CC2CCOCC2)cc1F
79 | 904 | CC(=O)N1CCc2sc(C(=O)N3CCN(c4cc(C)ccc4C)CC3)cc2C1
80 | 879 | COc1ccc(Cl)c(Nc2nc3ccccc3nc2NS(=O)(=O)c2cccc(NC(=O)C(C)(C)N)c2)c1
81 | 711 | O=c1cccnn1CCNS(=O)(=O)c1ccc(OC(F)(F)F)cc1
82 | 864 | CSc1ccc(-c2nc3ncccn3c2Nc2cc(C)ccc2C)cc1
83 | 604 | O=C(Nc1cnn(-c2ncncc2N2CCCCC2)c1)C1CC1
84 | 684 | N#Cc1cccc(-c2cn3c(n2)N(C(=O)c2cccs2)CCC3)c1
85 | 878 | CCc1nnc(-c2ccc3ccn(CC(=O)N4CCN(c5ccc(F)cc5)CC4)c3c2)o1
86 | 665 | Cc1noc(-c2ccc(NC(=O)CSc3nnnn3C)cc2)n1
87 | 793 | CC(Oc1ccc(=O)n(-c2ccc(F)cc2)n1)C(=O)Nc1cccc(F)c1 (centres undefined)
88 | 676 | COc1ccc(CNC(=O)Cc2cn(C)c3ncccc23)c(OC)c1
89 | 568 | NC(=O)C1CCN(C2CC(=O)N(c3ccc4c(c3)OCCO4)C2=O)CC1 (centres undefined)
